Results: patent US20210145801A1, “THERAPY FOR PROTEIN MISFOLDING DISEASE” (WREN THERAPEUTICS LIMITED, priority 2018, published 2021)

How the values were obtained:
[1] = test system: Aβ1-42Neur worms (CL2355); assay: Automated motility assay in Aβ1-42Neur worms; type: in vivo, C. elegans; details: vs untreated worms
Experimental: (§1) Briefly, Netoglitazone stocks (5 mM in 100% DMSO) were used at an appropriate concentration to seed 9-cm NGM plates. Plates were then placed in a laminar flow hood at room temperature (22° C.) for up to 4 hours to dry. C. elegans cultures were then transferred onto media seeded with compound as L4 stage or Day 3 for late treatments and incubated at 24° for the whole experiment. Experiments were carried out at different Netoglitazone concentrations ranging from 0.05 to 500 μM in 1% DMSO. As controls, plates seeded only with 1% DMSO were used.
(§2) All C. elegans populations were cultured at 20° C. and developmentally synchronized from a 4 h egg-lay. At 64-72 h post-egg-lay (time zero), individuals were transferred to FUDR plates, and body movements were assessed over the times indicated. At different ages, the animals were washed off the plates with M9 buffer and spread over an OP-50 unseeded 9 cm plate, after which their movements were recorded at 20 fps using a recently developed microscopic procedure (M. Perni et al., Massively parallel C. elegans tracking provides multi-dimensional fingerprints for phenotypic discovery. J. Neurosci. Methods. 306, 57-67 (2018)) for 1 min. Up to 600 animals were counted in each experiment in duplicate unless stated otherwise. […]

[2] = test system: N2 control (healthy) worms; assay: Automated motility assay in healthy control worms; type: in vivo, C. elegans; details: same concentration range as in AD worms
Experimental: Standard conditions were used for the propagation of C. elegans (S. Brenner, The genetics of Caenorhabditis elegans. Genetics. 77, 71-94 (1974)). Briefly, the animals were synchronized by hypochlorite bleaching, hatched overnight in M9 buffer (3 g/l KH2PO4, 6 g/l Na2HPO4, 5 g/l NaCl, […]), and subsequently cultured at 20° C. on nematode growth medium (NGM) (CaCl2) 1 mM, MgSO4 1 mM, cholesterol 5 μg/mL, PBS Buffer (250 μM KH2PO4, 67.5 μM KCl, 3.425 mM of NaCl, pH 6), Agar 17 g/L, NaCl 3 g/1, casein 7.5 g/l) plates seeded with the E. coli strain OP50. […]
as §2

AD worms (GMC101) = details: GMC101, C. elegans, in vivo
Experimental: as §1

## O=C1NC(=O)C(Cc2ccc3cc(OCc4ccccc4F)ccc3c2)S1 (stereo not drawn) [Netoglitazone]
[1]
  Motility of Aβ1-42Neur worms: significantly improves the (A) chemotaxis index and (B) motility
[2]
  Effect on mobility of healthy worms: negligible compared to the observed effect in AD worms
AD worms (GMC101)
  Maximum tolerable dose in AD worms: less than 50 μM
